The values that follow come from patent US6664271B1, “Immunopotentiator agents” (Eli Lilly and Company, priority 1999, dated 2003).

Marks after values point to notes of the source that are not given here.

Data set [1] concerns mononuclear leukocytes. The data set can be described thus: mammalian T-lymphocyte blastogenesis assay, porcine (Example 75). The format is cell-based. As for the experimental part:
The compound prepared in Example 30, namely (S)-ethyl 1-(2-thiopheneacetyl)-3-peridinecarboxylate, was further evaluated for in vitro T-lymphocyte blastogenic activity from mammalian species other than avian.
The mammalian blastogenesis assays were conducted with the same protocol as the vian assays with the following exceptions:
1. Only mononuclear leukocytes are used for the mammalian assay. The cells are obtained from whole blood by differential centrifugation using Histopague 1.077 (Sigma Chemical Company, St. Louis, Mo).
2. 0.5% Fetal Bovine Serum (FBS) [GIBCOBRL, Grand Island N.Y.] is added to RPMI 1640 medium. Exception: Non-human primate plasma is used instead of FBS at 5 ml/liter to RPMI 1640 medium.
3. 5×10^5 cells/well were used with the mammalian assays.

The test system of data set [2] is E. coli 19B. The data set can be described thus: bacterial clearance of E. coli from peripheral blood of neonatal chicks (Example 77). The class given is in vivo, chick. The following applies: single subcutaneous injection of 25 μg, E. coli challenge, blood 14-18 hours post-challenge. Here is the method:
The compounds of Example 15 ((S)-ethyl 1-benzoyl-3-piperidinecarboxylate), Example 29 (1-benzoyl-3-butyrylpiperidine), Example 30 ((S)-ethyl 1-(2-thiopheneacetyl)-3-piperidinecarboxylate) and Example 68 ((S)-ethyl 1-benzyl-3-piperidinecarboxylate 1-methiodide), respectively, were tested to determine whether a single subcutaneous injection enhanced the bacterial clearance of E. coli from the peripheral blood of neonatal chicks. Bacterial clearance is a measurement of cell-mediated immunity, specifically, phagocyte function, in animals. An approved Animal Care and Use Committee protocol governed the activity in this experiment.
1 ml syringes with 21 g 1″ needles (Becton Dickinson and Company Franklin Lakes, N.J. 07417-1884); 1 ml syringe with 25 g ⅝″ needles (Becton Dickinson and Company Franklin Lakes, N.J. 07417-1884); EMB agar plates (Difco Laboratories, Becton Dickinson Microbiology Systems, Sparks, Md. 21152); Culture tubes (14 ml polystyrene round bottom, Becton Dickinson Labware, Franklin Lakes, N.J. 07417-1886); Dulbecco's Phosphate Buffered Saline w/o Mg^++ or Ca^++ (Gibco BRL, Life Technologies Rockville, Md. 20850). Peterson x Hubbard male chicks (day of hatch from a commercial hatchery) were utilized
160 chicks were divided into 6 groups: Group 1=Controls (acetate-buffered saline vehicle); Group 2=Compound of Example 15 ((S)-ethyl 1-benzoyl-3-piperidinecarboxylate); Group 3=Compound of Example 29 (1-benzoyl-3-butyrylpiperidine); Group 4=Compound of Example 30 ((S)-ethyl 1-(2-thiopheneacetyl)-3-piperidinecarboxylate); Group 5=Compound of Example 68 ((S)-ethyl 1-benzyl-3-piperidinecarboxylate 1-methiodide); and Group 6=environmental controls. Groups 1-5 contained 3 replicates of 10 chicks each and Group 6 contained 1 replicate of 10 chicks.
Day −2 Upon arrival, day of hatch chicks were randomized (10/group), and placed in a Petersime heated brooder battery unit (Petersime Incubator Company, Gettysburg, Ohio 45328). […] All chicks were given ad libitum access to a commercially available starter feed and water.
Day 0 11:00 AM. Five to ten colonies of E. coli 19B were selected from a fresh overnight blood agar plate (TSA II with 5% sheep blood, Becton Dickinson Microbiology Systems Cockeysville, Md. 21030) and placed into 100 ml Brain Heart Infusion broth (Difco Laboratories, Becton Dickinson Microbiology Systems Sparks, Md. 21152) in a flask. […]
Day 5 EMB plates were removed from the incubator and bacterial colonies were counted and recorded to calculate CFU/ml/chick.
Data was transformed to logio values, and analysis of variance was used to determine significant differences between the treatment groups and controls. Data was expressed as the percentage of enhancedbacterial clearance compared to E. coli-challenged controls. […]

For the compound `CCOC(=O)[C@H]1CCCN(C(=O)Cc2cccs2)C1` [Example 30, (S)-Ethyl 1-(2-Thiopheneacetyl)-3-piperidinecarboxylate], in data set [1], the MSC came out at 10 μg μg/ml and the MTC was 1 mg/mL. The “% Enhanced Clearance Compared to Controls” value in data set [2] was 61* %.
